Results from PMC11747041, “Study of an arginine- and tryptophan-rich antimicrobial peptide in peri-implantitis” (Frontiers in Bioengineering and Biotechnology, 2025).
No end group written: not given here.

How the values were obtained:
[1] = test system: HGFs; assay: Live/dead assay (calcein AM/PI); assay type: cell-based, human; conditions: 62.5 μg/mL, 24 h, vs untreated cells
Method: (§1) A total of 5 × 10^4 cells per well were inoculated into 24-well plates. After 24 h, the cells were exposed to two different types of culture medium: regular medium and medium supplemented with VR-12 (62.5 μg/mL). Following a 24-hour incubation period, the cells were incubated with 200 µL of fresh medium containing calcein AM solution and propidium iodide (PI; Beyotime, Shanghai, China) solution, protected from light for 20 min at room temperature. The observations were conducted using inverted fluorescence microscopy (IX71, Olympus, Japan) and images were captured for documentation purposes.

[2] = test system: rat red blood cells; conditions: 125 μg/mL (maximum concentration examined), rat erythrocytes 5% (v/v) suspension, 37°C, 1.5 h, OD540, 1% Triton X-100 positive control
Method: Initially, the cells underwent three washing cycles with PBS, followed by centrifugation at 1,000 rpm for 10 min at ambient temperature. After removing the supernatant, a suspension of cells at a concentration of 5% (v/v) was prepared using 0.9% NaCl solution (w/v). Subsequently, 100 μL of peptides at varying concentrations (7.81–125 μg/mL, serial two-fold dilution) were combined with 100 μL of the red blood cell suspensions. The mixture underwent incubation at 37°C for a duration of 1.5 h, after which it was subjected to centrifugation at 1,000 rpm for 5 min, and measurement of absorbance at OD540.1% Triton X-100 and NaCl (0.9%) were used as positive and negative controls, respectively. The hemolysis rate (HR) was determined by employing this formula: HR%=ODt−ODn/ODp−ODn×100% where ODp, ODn and ODt were the absorbance values of the positive control group, the negative control group and the test group, respectively.

[3] = test system: Streptococcus gordonii (ATCC 10558); assay type: cell-based; conditions: ATCC 10558, 48 h
Method: (§2) Streptococcus gordonii (ATCC 10558) is a facultative anaerobic bacterium, Fusobacterium nucleatum (ATCC 25586) and Porphyromonas gingivalis (BNCC 353909) are obligate anaerobic bacteria. The effectiveness of VR-12 in suppressing bacterial proliferation was assessed using the standard broth dilution method ([Tang et al., 2022]). Various concentrations of VR-12 (1,000–7.8 μg/mL, serial two-fold dilution) were mixed with liquid medium broth containing bacteria (1 × 10^6 CFU/mL) at a ratio of 1:1, with an overall volume of 200 µL. A blank control was established using a 200 µL PBS solution, whereas a negative control was prepared by combining 100 µL PBS solution with 100 µL of bacterial culture (1 × 10^6 CFU/mL). The bacterial cultures were incubated in liquid medium for 24/48 h at 37°C, with daily observation of the bacterial sediment accumulation at the base of the well. MIC refers to the minimal concentration of peptide that induces a clear liquid and no visible bacterial growth in the well. The bacterial suspension in the well with a concentration greater than the MIC was pipetted evenly and 10 µL of the liquid was extracted from the well and transferred to agar plates and incubated for 24/48 h for MBC determination.

[4] = test system: Fusobacterium nucleatum (ATCC 25586); assay type: cell-based; conditions: ATCC 25586, 48 h
Method: as §2

[5] = test system: Porphyromonas gingivalis (BNCC 353909); assay type: cell-based; conditions: 48 h
Method: as §2

[6] = test system: RAW264.7 cells; assay: Cell proliferation, CCK-8 assay; assay type: cell-based, murine; conditions: RAW264.7, 125 μg/mL, CCK-8, OD450
Method: RAW264.7 cells (murine macrophage cell line, ATCC, Manassas, VA, United States) and HGFs (ATCC, Manassas, VA, United States) were cultured (37°C, sterile atmosphere of 5% CO2) in DMEM (Gibco, United States) containing 10% (v/v) fetal bovine serum (FBS, Solarbio Co., Ltd., Beijing, China) and 1% penicillin/streptomycin (Gibco, Carlsbad, CA).
We assessed cell growth using the Cell Counting Kit-8 (CCK-8) assay ([Chen et al., 2022]). Cells (1,000 cells/well) were seeded in a 96-well plate. After 24 h, the cells were treated with VR-12 (7.81–125 μg/mL, serial two-fold dilution) for 1, 3, 5, and 7 days. The wells without VR-12 were used as blank controls. Cells were incubated using the CCK-8 kit (New Cell&Molecular Biotech Co., Ltd., Suzhou, China), and the absorbance was measured at OD450.

[7] = test system: RAW264.7 cells; assay: Live/dead assay (calcein AM/PI); assay type: cell-based, murine; conditions: RAW264.7, 62.5 μg/mL, 24 h, vs untreated cells
Method: as §1

Substance: VRLWVRVRRWRR-NH2 [VR-12]
- Cell viability by live/dead staining [1]: no significant difference in cell viability
- α-helix + β-sheet proportion: 31.5%
- Hemolysis rate [2]: 3.27%
- MBC [3]: 62.5 µg/mL
- MIC [3]: 31.25 µg/mL
- MBC [4]: 125 µg/mL
- MIC [4]: 62.5 µg/mL
- MBC [5]: 125 µg/mL
- MIC [5]: 62.5 µg/mL
- Inhibition rate [6]: approximately 50%
- Cell viability by live/dead staining [7]: no significant difference in cell viability
